Experimental findings from ChEMBL document CHEMBL1201862, “PubChem BioAssay data set” (2004) are described below.

One may read the AC50 as the midpoint of the concentration-response curve, whichever way the signal moves. One may read the IC50 as the concentration at which inhibition is half-maximal. One may read the EC50 as the concentration giving half of the maximal effect.

One series deals with Cytochrome P450 2C19 (Homo sapiens, UniProt P33261). Put plainly: Cytochrome panel assay with activity outcomes. Panel member name: p450-cyp2c19 Compounds with AC50 equal or less than 10 uM are considered active. Format: functional.
Chain of Cytochrome P450 2C19 (P33261 whole entry): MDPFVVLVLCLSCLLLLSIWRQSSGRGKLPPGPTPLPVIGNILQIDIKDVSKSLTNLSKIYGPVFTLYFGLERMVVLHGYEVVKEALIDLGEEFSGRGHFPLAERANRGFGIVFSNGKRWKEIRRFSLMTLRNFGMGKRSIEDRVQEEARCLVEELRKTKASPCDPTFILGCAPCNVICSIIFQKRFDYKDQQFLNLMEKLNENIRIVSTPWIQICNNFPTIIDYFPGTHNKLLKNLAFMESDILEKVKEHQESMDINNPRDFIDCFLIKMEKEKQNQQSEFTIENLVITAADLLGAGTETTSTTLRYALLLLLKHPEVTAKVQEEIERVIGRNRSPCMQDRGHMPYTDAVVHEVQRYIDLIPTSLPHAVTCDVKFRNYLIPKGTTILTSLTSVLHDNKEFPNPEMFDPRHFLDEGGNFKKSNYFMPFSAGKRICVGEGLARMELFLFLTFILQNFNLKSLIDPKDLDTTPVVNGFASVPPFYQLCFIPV
For another series, the target named is Cytochrome P450 2D6 (Homo sapiens, UniProt P10635).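 Also: CYP2D6 member of a cytochrome P450 panel assay.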
Chain of Cytochrome P450 2D6 (P10635 whole entry): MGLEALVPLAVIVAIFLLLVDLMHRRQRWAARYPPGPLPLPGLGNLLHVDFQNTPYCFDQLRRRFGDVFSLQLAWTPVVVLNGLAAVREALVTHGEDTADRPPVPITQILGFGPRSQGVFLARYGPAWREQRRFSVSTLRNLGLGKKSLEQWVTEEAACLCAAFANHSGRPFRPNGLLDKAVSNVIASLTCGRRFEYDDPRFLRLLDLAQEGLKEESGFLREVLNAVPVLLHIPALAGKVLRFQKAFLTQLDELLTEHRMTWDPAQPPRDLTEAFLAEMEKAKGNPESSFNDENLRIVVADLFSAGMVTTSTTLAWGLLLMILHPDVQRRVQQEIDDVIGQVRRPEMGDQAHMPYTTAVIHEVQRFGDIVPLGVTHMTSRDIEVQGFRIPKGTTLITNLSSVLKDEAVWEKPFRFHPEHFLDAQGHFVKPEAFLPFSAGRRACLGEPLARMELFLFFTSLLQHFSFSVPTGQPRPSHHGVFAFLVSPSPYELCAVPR
A further series addresses Cytochrome P450 2C9 (Homo sapiens, UniProt P11712).
A further series addresses T1, Cytochrome P450 1A2 (Homo sapiens, UniProt P05177).
T1 sequence (P05177 whole entry): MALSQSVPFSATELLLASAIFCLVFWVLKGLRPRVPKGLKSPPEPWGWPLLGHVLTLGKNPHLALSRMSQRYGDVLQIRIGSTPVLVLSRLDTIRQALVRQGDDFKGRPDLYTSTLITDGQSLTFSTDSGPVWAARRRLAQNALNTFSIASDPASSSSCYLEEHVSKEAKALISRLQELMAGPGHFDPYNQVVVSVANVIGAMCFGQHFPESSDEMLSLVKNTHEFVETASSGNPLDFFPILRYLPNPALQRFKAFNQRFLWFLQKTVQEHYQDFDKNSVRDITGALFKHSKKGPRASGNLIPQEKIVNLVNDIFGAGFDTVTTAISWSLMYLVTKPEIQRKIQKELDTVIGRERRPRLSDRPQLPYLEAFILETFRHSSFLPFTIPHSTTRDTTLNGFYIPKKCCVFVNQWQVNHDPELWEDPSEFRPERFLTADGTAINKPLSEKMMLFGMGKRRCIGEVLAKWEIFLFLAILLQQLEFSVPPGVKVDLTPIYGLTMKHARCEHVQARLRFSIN

For series [1], the target named is T2, Rac GTPase-activating protein 1 (Homo sapiens, UniProt Q9H0H5).
T2 sequence (Q9H0H5 whole entry): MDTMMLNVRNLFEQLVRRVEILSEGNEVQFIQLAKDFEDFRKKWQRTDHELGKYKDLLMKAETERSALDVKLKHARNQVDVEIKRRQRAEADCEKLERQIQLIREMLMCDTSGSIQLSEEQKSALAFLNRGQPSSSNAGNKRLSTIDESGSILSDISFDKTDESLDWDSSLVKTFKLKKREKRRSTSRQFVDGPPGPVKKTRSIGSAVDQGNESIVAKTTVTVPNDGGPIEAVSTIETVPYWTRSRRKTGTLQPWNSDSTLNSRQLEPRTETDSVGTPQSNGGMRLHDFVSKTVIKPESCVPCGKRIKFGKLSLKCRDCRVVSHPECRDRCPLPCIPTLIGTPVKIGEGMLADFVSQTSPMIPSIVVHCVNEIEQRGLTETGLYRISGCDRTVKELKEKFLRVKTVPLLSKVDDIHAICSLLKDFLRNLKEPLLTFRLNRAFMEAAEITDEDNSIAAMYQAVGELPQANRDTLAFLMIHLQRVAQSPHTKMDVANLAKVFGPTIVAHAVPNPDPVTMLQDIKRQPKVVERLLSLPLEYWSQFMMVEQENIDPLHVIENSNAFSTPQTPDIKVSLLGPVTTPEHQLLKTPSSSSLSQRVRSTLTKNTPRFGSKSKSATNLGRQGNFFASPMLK
The series is described as follows: blockers of MgcRacGAP-driven Rac1 GTP hydrolysis – biochemical, ADP Hunter fluorescence, primary and confirmatory, confirmation (AID 624330). It counts as functional.

Another series deals with T3, Streptokinase A (Streptococcus pyogenes serotype M1, UniProt P10520).
T3 sequence (P10520 whole entry): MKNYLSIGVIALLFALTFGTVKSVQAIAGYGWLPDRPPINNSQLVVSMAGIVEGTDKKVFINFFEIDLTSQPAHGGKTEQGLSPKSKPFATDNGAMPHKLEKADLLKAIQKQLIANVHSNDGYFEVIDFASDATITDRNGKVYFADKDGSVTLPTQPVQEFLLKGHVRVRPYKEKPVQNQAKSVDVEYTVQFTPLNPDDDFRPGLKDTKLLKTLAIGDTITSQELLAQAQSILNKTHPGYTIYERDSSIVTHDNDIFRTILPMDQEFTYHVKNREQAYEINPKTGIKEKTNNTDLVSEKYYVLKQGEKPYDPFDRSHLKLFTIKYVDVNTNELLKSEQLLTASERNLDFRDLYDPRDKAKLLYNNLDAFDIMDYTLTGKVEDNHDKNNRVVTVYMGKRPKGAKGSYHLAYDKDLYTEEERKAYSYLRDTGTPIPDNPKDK
Put plainly: viability-normalized secreted streptokinase activity reduction – plasminogen activation absorbance, OD405, dose response (AID 1914).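 Also: secreted streptokinase activity via plasminogen activation per viability signal from cell pellet.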 It counts as functional, Streptococcus pyogenes M1 GAS.

For series [2], the system named is Streptococcus sp. 'group A'. Put plainly: Streptococcus pyogenes SK(-)GAS viability under kanamycin – luminescence, BacTiterGlo, confirmation, counter-screen for streptokinase expression inhibitor project, dose response (AID 1900). Format: functional, organism-based. (The purpose of a counterscreen is to sort out artefacts and off-target activity.)
Another series has as its system Streptococcus. Put plainly: GAS UMAA2166 growth inhibition – luminescence, BacTiterGlo, counter-screen for streptokinase expression inhibitor project, dose response (AID 1915).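 Also: potency for reduction of bacterial viability or growth.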 It counts as functional, organism-based.

The source made the active and inactive calls. Bounds are passed on as bounds.

Chain of Cytochrome P450 2C9 (P11712 whole entry): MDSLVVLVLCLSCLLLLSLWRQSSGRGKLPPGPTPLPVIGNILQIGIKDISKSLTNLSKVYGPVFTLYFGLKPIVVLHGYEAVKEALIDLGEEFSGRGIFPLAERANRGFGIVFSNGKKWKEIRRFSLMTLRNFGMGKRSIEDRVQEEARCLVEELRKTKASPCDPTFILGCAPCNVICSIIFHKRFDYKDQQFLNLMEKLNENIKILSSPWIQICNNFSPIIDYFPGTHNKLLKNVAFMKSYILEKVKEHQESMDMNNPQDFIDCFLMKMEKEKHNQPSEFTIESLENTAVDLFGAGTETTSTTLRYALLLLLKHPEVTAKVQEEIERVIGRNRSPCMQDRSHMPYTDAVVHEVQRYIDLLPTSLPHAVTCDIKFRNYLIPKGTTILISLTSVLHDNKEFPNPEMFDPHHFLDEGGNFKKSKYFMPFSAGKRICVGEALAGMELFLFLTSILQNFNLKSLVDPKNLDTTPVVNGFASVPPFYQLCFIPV

As for `c1nc(NCCN2CCOCC2)c2cc(-c3ccc4c(c3)OCO4)ccc2n1`, on Cytochrome P450 2C19 (read-out: AC50), the AC50 is 39.8 µM (inconclusive).

With `CCc1cc2c(=O)c(-c3nc4ccccc4n3C)c(C)oc2c(CN(CC)CC)c1O`, on Cytochrome P450 2C19 (read-out: AC50), the AC50 is 3.55 µM (inconclusive).

Take `CCOC(=O)C1CCCN(C(=O)CSCc2ccccc2)C1` (centres undefined): the concentration at half-maximal activity (AC50) at Cytochrome P450 2D6 is 15.8 µM (inconclusive).

Consider `COc1ccc(O[C@H]2C=C[C@@H](c3ccccc3)O[C@H]2CO/N=C\C[C@@H]2C=C[C@H](OC(C)=O)[C@H](COC(C)=O)O2)cc1`, for which the AC50 on Cytochrome P450 2C9 was 3.16 µM (inconclusive).

`CCOC(=O)c1cc2sc(C)cc2n1CC(=O)N1CCN(C(=O)c2ccco2)CC1`: the AC50 was 31.6 µM (inconclusive) at Cytochrome P450 1A2 and 20 µM (inconclusive) at Cytochrome P450 2C9.

As for `N#Cc1ccc(OC(=O)c2ccc(NC(=N)N)cc2)cc1.c1ccncc1`, the AC50 on Cytochrome P450 2D6 is 3.16 µM (inconclusive); at Cytochrome P450 1A2 it was 2.51 µM (inconclusive).

Take `CC(C)CN1CC[C@@]2(CCCN(C(=O)c3cc(C(F)(F)F)cc(C(F)(F)F)c3)C2)C1`: the AC50 was 39.8 µM (inconclusive) at Cytochrome P450 2C19 (read-out: AC50) and 25.1 µM (inconclusive) on Cytochrome P450 1A2.

Regarding `CCOC(=O)c1oc2cc(O)cc(C)c2c1C`, in series [1], the IC50 was 21 µM (active).

For the molecule `COCCN=C(S)NC1CC2CCCC(C1)N2Cc1cccs1` (centres undefined), the concentration at half-maximal activity (AC50) at Cytochrome P450 2C9 is 39.8 µM (inconclusive).

With `CCOC(=O)c1ccc(NC(=O)COc2ccccc2OC)cc1`, the AC50 on Cytochrome P450 2C19 (read-out: AC50) is 3.98 µM (inconclusive); on Cytochrome P450 1A2, 7.08 µM (inconclusive).

Turning to `COc1ccc(CNc2ncnc3ccc(-c4ccc(N(C)C)cc4)cc23)c(OC)c1`, the AC50 was 25.1 µM (inconclusive) at Cytochrome P450 2D6 and 0.398 µM (inconclusive) at Cytochrome P450 2C9.

For `O=C(c1cccs1)N1CCC(c2nc(O)c3nnn(Cc4ccccc4Cl)c3n2)CC1`, the half-maximal effective concentration (EC50) is > 150 µM (not active) at Streptokinase A, > 50 µM (not active) in series [2] and > 50 µM (not active) in the series on Streptococcus.

As for `CCOc1cc(/C=N\n2nnnc2N)ccc1O`, the IC50 in series [1] is 32.1 µM (active).

For `CCOC(=O)c1[nH]c2ccccc2c1N=C(S)Nc1cccc(C)c1`, in series [1], the IC50 was 115 µM (active).

Regarding `Cc1ccccc1NC(=O)NCCCCc1ccccc1`, the EC50 (at Streptokinase A; in series [2]; in the series with Streptococcus) was > 150 µM (not active) each time.

With `COc1ccc(C(=O)N2CCC[C@@]3(CCN(CC(C)C)C3)C2)cc1`, the AC50 was 15.8 µM (inconclusive) at Cytochrome P450 2D6 and 31.6 µM (inconclusive) on Cytochrome P450 1A2.

In the case of `CCOC(=O)c1sc(/N=C/c2ccc(O)cc2O)cc1C`, in series [1], the IC50 was 22.4 µM (active).

Turning to `c1cncc(-c2cc(NCc3cccs3)ncn2)c1`, the AC50 on Cytochrome P450 2D6 was 25.1 µM (inconclusive).

With `O=C(CCc1ccccc1)Nc1nnc(-c2ccc3c(c2)CCCC3)o1`, the values for the EC50 (at Streptokinase A; in series [2]; with Streptococcus) were > 150 µM (not active), 3.21 µM (active) and 26.2 µM (active), respectively.

`Cc1cnc(CNc2ncncc2-c2ccc3c(c2)OCO3)cn1`: the half-maximal activity concentration (AC50) on Cytochrome P450 2D6 was 20 µM (inconclusive).

Consider `COc1cc(/C=C/C(=O)OCC(=O)NCC2CCCCC2)ccc1O`, for which the 50% inhibitory concentration (IC50) in series [1] is 39.3 µM (active).

Take `O=C(Nc1ncc2c(n1)-c1ccccc1CC2)c1cccc(Cl)c1`: the AC50 on Cytochrome P450 1A2 was 2.82 µM (inconclusive); on Cytochrome P450 2C9 it was 20 µM (inconclusive).

With `COc1cc(/C=C2\C(=N)N3N=C(CC(=O)N4CCOCC4)SC3=NC2=O)ccc1O`, the half-inhibitory concentration (IC50) in series [1] is 159 µM (active).

Consider `CCC(C)Sc1cc(C(F)(F)F)c(C(=O)Nc2ccc(Cl)cc2)cn1` (centres undefined), for which the concentration giving a half-maximal response (EC50) on Streptokinase A is 2.38 µM (active); in series [2] it was 4.03 µM (active); in the series on Streptococcus, 7.94 µM (active).

As to `Cn1cc(-c2nc3cnc(N4CCNCC4)nc3n(CCc3ccccc3)c2=O)c2ccccc21`, the figures for the AC50 at Cytochrome P450 2D6 and on Cytochrome P450 1A2 were 39.8 µM (inconclusive) and 15.8 µM (inconclusive), respectively.

Take `Cc1ccc(-c2ncccc2OC(=O)C23CC4CC(CC(C4)C2)C3)cc1`: the results for the half-maximal activity concentration (AC50) at Cytochrome P450 2D6 and at Cytochrome P450 2C9 were 22.4 µM (inconclusive) and 31.6 µM (inconclusive), respectively.

On to `COc1ccc(NC(=O)NCCCN2CCCCC2C)cc1` (centres undefined), for which the half-maximal activity concentration (AC50) was 39.8 µM (inconclusive) at Cytochrome P450 2C19 (read-out: AC50), 25.1 µM (inconclusive) at Cytochrome P450 1A2 and 1.26 µM (inconclusive) at Cytochrome P450 2C9.

Take `COc1ccc2nc(N3CCCC(C(=O)NCCCN4CCN(C)CC4)C3)sc2c1` (centres undefined): the AC50 result was “inconclusive” on Cytochrome P450 2C19, 12.6 µM (inconclusive) on Cytochrome P450 1A2 and 4.47 µM (inconclusive) on Cytochrome P450 2C9.

On to `COc1ccc2cc(C(=O)/C=C/c3cc(OC)c(O)c(OC)c3)ccc2c1`, for which the EC50 is > 150 µM (not active) at Streptokinase A, 5.61 µM (active) in series [2] and 14.7 µM (active) in the series with Streptococcus.

With `C=C1S/C(=N/c2ccccc2Cl)N(C(=O)c2sc3ccccc3c2Cl)C12CCCCC2`, the figures for the 50% effective concentration (EC50) (on Streptokinase A; in series [2]; in the series on Streptococcus) were 19.8 µM (active), 20.2 µM (active) and > 150 µM (not active), respectively.

Take `CC(=O)NC(CCS(C)(=O)=O)C(=O)Nc1c(F)cccc1F` (centres undefined): on Cytochrome P450 2C19, the AC50 result is recorded as “inconclusive”.

With `COc1ccc(N=Nc2cc(-c3ccccc3)ccc2O)cc1`, the concentration for a half-maximal effect (EC50) is 7.22 µM (active) on Streptokinase A, 34.7 µM (active) in series [2] and > 150 µM (not active) in the series on Streptococcus.

`O=C(CNC(=O)c1cccs1)NCC(=O)OCc1ccc(Cl)cc1`: the half-maximal activity concentration (AC50) at Cytochrome P450 2C9 is 0.126 µM (inconclusive).

As for `Cc1cc(Oc2ccc(-c3ccccc3)cc2)nc(N2CCOCC2)n1`, the concentration for a half-maximal effect (EC50) was 35.4 µM (active) on Streptokinase A, 49.7 µM (active) in series [2] and > 150 µM (not active) in the series on Streptococcus.

As to `O=c1c(-c2ccc(F)cc2)nc2cnc(Oc3ccccc3)nc2n1Cc1cccs1`, the AC50 at Cytochrome P450 2C9 is 2.51 µM (inconclusive).

With `N=C(N)SCC(=O)O`, on Cytochrome P450 2C19, the AC50 result is given as “inconclusive”.

`CCn1c(=S)sc2c(O)nc(SCC(=O)Nc3cc(OC)ccc3OC)nc21`: the EC50 on Streptokinase A is 17.8 µM (inconclusive); in series [2], 6.33 µM (active); with Streptococcus it was > 150 µM (not active).

Regarding `COc1ccc2[nH]cc(CCNc3ccnc(-c4ccccc4C(F)(F)F)n3)c2c1`, the half-maximal activity concentration (AC50) on Cytochrome P450 2D6 was 15.8 µM (inconclusive).

With `COc1ccc(C(=O)O[C@H]2CC[C@@]3(C)[C@H]4CC[C@H]5[C@]3(C[C@]3(O)[C@H]6CN7C[C@H](C)CC[C@H]7[C@](C)(O)[C@]6(O)[C@H](O)C[C@]53O)O[C@]24O)cc1OC`, the AC50 entry on Cytochrome P450 2C19 was “inconclusive”.

In the case of `Nc1ccc(/N=N\c2ccccc2)c(N)n1`, the AC50 on Cytochrome P450 2C19 (read-out: AC50) was 7.94 µM (inconclusive); at Cytochrome P450 2C9, 15.8 µM (inconclusive).

As to `CC(=O)N1CCN(c2ccccc2NC(=O)COc2ccc(Br)cc2)CC1`, the half-maximal activity concentration (AC50) on Cytochrome P450 2D6 is 15.8 µM (inconclusive).

Regarding `Oc1ccc(Cc2ccccc2Cl)c(O)c1`, the IC50 in series [1] was 54.8 µM (active).
